Measurements taken from patent publication US12421252B2, “Spiro (isobenzofuranazetidine) compounds for the treatment of autoimmune disease” (Hoffmann-La Roche Inc., priority 2020, dated 2025).

Molecular target: T1, human TLR8 (Homo sapiens, UniProt Q9NR97)
T1 sequence (Q9NR97 27-1041): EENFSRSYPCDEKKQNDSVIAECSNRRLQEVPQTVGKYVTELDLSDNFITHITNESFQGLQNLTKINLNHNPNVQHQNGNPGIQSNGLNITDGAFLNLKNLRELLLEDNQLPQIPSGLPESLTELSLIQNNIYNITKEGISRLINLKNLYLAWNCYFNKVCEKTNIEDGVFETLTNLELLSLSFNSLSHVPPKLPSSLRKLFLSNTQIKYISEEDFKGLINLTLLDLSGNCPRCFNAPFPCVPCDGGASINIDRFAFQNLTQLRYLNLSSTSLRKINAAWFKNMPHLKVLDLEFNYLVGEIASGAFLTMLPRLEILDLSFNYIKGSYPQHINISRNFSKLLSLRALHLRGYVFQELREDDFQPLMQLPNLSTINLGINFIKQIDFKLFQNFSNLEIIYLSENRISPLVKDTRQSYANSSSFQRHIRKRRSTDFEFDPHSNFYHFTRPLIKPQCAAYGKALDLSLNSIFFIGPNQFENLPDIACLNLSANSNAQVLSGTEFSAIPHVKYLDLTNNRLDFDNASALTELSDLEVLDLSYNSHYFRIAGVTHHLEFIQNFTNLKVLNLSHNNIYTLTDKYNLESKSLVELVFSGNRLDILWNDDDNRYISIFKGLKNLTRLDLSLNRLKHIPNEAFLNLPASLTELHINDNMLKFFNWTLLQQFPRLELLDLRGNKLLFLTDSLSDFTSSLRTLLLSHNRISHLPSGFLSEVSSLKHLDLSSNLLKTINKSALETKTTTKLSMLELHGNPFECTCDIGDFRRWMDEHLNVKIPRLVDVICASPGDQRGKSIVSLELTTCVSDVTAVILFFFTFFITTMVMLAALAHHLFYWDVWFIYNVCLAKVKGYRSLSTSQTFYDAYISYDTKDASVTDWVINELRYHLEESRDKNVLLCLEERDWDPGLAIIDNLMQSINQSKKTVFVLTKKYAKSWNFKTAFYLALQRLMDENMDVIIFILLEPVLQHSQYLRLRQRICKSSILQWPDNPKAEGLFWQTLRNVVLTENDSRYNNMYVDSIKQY
Experiment: HEK293-Blue-hTLR-8 cells assay
Assay type: cell-based
Details: HEK293-Blue-hTLR8 cells, R848 stimulation, 20 hrs, SEAP reporter; read-out: HEK/hTLR8 IC50
Excerpt: HEK293-Blue-hTLR-8 cells assay:
A stable HEK293-Blue-hTLR-8 cell line was purchased from InvivoGen (Cat. #: hkb-htlr8, San Diego, California, USA). These cells were originally designed for studying the stimulation of human TLR8 by monitoring the activation of NF-κB. A SEAP (secreted embryonic alkaline phosphatase) reporter gene was placed under the control of the IFN-β minimal promoter fused to five NF-κB and AP-1-binding sites. The SEAP was induced by activating NF-κB and AP-1 via stimulating HEK-Blue hTLR8 cells with TLR8 ligands. Therefore the reporter expression was declined by TLR8 antagonist under the stimulation of a ligand, such as R848, for incubation of 20 hrs. The cell culture supernatant SEAP reporter activity was determined using QUANTI-Blue™kit (Cat. #: rep-qb1, Invivogen, San Diego, Ca, USA) at a wavelength of 640 nm, a detection medium that turns purple or blue in the presence of alkaline phosphatase.
HEK293-Blue-hTLR8 cells were incubated at a density of 250,000˜450,000 cells/mL in a volume of 170 μL in a 96-well plate in Dulbecco's Modified Eagle's medium (DMEM) containing 4.5 g/L glucose, 50 U/mL penicillin, […], […], 2 mM L-glutamine, 10% (v/v) heat-inactivated fetal bovine serum with addition of 20 μL test compound in a serial dilution in the presence of final DMSO at 1% and 10 μL of 60 uM R848 in above DMEM, perform incubation under 37° C. in a CO2 incubator for 20 hrs. Then 20 μL of the supernatant from each well was incubated with 180 μL Quanti-blue substrate solution at 37° C. for 2 hrs and the absorbance was read at 620-655 nm using a spectrophotometer. The signaling pathway that TLR8 activation leads to downstream NF-κB activation has been widely accepted, and therefore similar reporter assay was modified for evaluating TLR8 antagonist.

SMILES	IC50
C[C@@H]1CN(c2ccc(C#N)n3ncc(F)c23)C[C@H](CN2CC3(C2)OCc2cc(N4CC5(CNCCO5)C4)ccc23)O1 [Example 4, 3-fluoro-4-[(2R,6S)-2-methyl-6-[[6-(5-oxa-2,8-diazaspiro[3.5]nonan-2-yl)spiro[1H-isobenzofuran-3,3′-azetidine]-1′-yl]methyl]morpholin-4-yl]pyrazolo[1,5-a]pyridine-7-carbonitrile]	35 nM
C[C@@H]1CN(c2ccc(C#N)n3ncc(F)c23)C[C@H](CN2CC3(C2)OCc2cc(N4CC(C)(N)C4)ncc23)O1 [Example 24, 4-[(2S,6R)-2-[[6-(3-amino-3-methyl-azetidin-1-yl)spiro[1H-furo[3,4-c]pyridine-3,3′-azetidine]-1′-yl]methyl]-6-methyl-morpholin-4-yl]-3-fluoro-pyrazolo[1,5-a]pyridine-7-carbonitrile]	59 nM
C[C@@H]1CN(c2ccc(C#N)n3ncc(F)c23)C[C@H](CN2CC3(C2)OCc2cc(N4CC(N)C4)ccc23)O1 [Example 9, 4-[(2S,6R)-2-[[6-(3-aminoazetidin-1-yl)spiro[1H-isobenzofuran-3,3′-azetidine]-1′-yl]methyl]-6-methyl-morpholin-4-yl]-3-fluoro-pyrazolo[1,5-a]pyridine-7-carbonitrile]	45 nM
C[C@@H]1CN(c2ccc(C#N)n3ncc(F)c23)C[C@H](CN2CC3(C2)OCc2cc(N4CCNCC4)ccc23)O1 [Example 6, 3-fluoro-4-[(2R,6S)-2-methyl-6-[(6-piperazin-1-ylspiro[1H-isobenzofuran-3,3′-azetidine]-1′-yl)methyl]morpholin-4-yl]pyrazolo[1,5-a]pyridine-7-carbonitrile]	24 nM
C[C@@H]1CN(c2ccc(C#N)n3ncc(F)c23)C[C@H](CN2CC3(C2)OCc2cc(N4C[C@H](N)[C@@H](O)C4)ccc23)O1 [Example 10, 4-[(2S,6R)-2-[[6-[(3S,4S)-3-amino-4-hydroxy-pyrrolidin-1-yl]spiro[1H-isobenzofuran-3,3′-azetidine]-1′-yl]methyl]-6-methyl-morpholin-4-yl]-3-fluoro-pyrazolo[1,5-a]pyridine-7-carbonitrile]	142 nM

Results, then the compound that gave them:

IC50	SMILES
22 nM	[2H]c1ccc2c(N3C[C@H](CN4CC5(C4)OCc4cc(N6CC(N)C6)ncc45)O[C@H](C)C3)ccc(C#N)c2n1 [Example 32, 5-[(2S,6R)-2-[[6-(3-aminoazetidin-1-yl)spiro[1H-furo[3,4-c]pyridine-3,3′-azetidine]-1′-yl]methyl]-6-methyl-morpholin-4-yl]-2-deuterio-quinoline-8-carbonitrile]
30 nM	[2H]c1ccc2c(N3C[C@H](CN4CC5(C4)OCc4cc(N6CC(N)C6)cnc45)O[C@H](C)C3)ccc(C#N)c2n1 [Example 20, 5-[(2S,6R)-2-[[3-(3-aminoazetidin-1-yl)spiro[5H-furo[3,4-b]pyridine-7,3′-azetidine]-1′-yl]methyl]-6-methyl-morpholin-4-yl]-2-deuterio-quinoline-8-carbonitrile]
25 nM	[2H]c1ccc2c(N3C[C@H](CN4CC5(C4)OCc4cc(N6C[C@H]7NCCO[C@@H]7C6)ncc45)O[C@H](C)C3)ccc(C#N)c2n1 [Example 28, 5-[(2S,6R)-2-[[6-[(4aR,7aR)-3,4,4a,5,7,7a-hexahydro-2H-pyrrolo[3,4-b][1,4]oxazin-6-yl]spiro[1H-furo[3,4-c]pyridine-3,3′-azetidine]-1′-yl]methyl]-6-methyl-morpholin-4-yl]-2-deuterio-quinoline-8-carbonitrile]
